Consider one compound from patent US10828306B2, “Methotrexate for proliferative vitreoretinopathy” (Massachusetts Eye and Ear Infirmary, priority 2014, dated 2020).

Structures are written as SMILES. “And” between values parts separate entries of the source, which are not always exact repeats. Equal values may be shown once. “Also recorded” adds a separate entry of the source.

For series [1], the system named is human proliferative vitreoretinopathy (PVR) cells. The series can be described thus: Growth of human PVR cells in culture. The series is classed as cell-based. The conditions noted are these: for Growth of PVR cells versus control: methotrexate 400, 200, 100 (micrograms, μM), 30,000 cells per well. As to the method: The cells were treated with 100 μM, 200 μM, or 400 μM Methotrexate (MTX) as indicated, and the images were taken after 72 hours (2A), 1 week (2B) or 2 weeks (2C).
We hypothesized that methotrexate would inhibit human proliferative vitreoretinopathy (PVR) cells in culture. PVR membranectomy was performed in patients undergoing retinal detachment repair secondary to PVR. Using cellular separation techniques, cellular constituents of the PVR membranes were separated from the extracellular matrix membranes. 30,000 cells per well were placed into a standard 12 welled plate. All 12 wells received endothelial cell growth medium with supplemental growth factors. Four arms were designated consisting of three wells each. The first arm served as a control receiving the standard growth medium but no other intervention. The remaining wells were designated as treatment arms. The second arm of three wells served as the first treatment arm and exposed the cells to 400 micrograms of methotrexate. The third and fourth arms of three wells each exposed the cultured cells to 200 and 100 micrograms, respectively, of methotrexate.

In series [2] the test system is patients with retinal detachment at high risk for proliferative vitreoretinopathy (PVR). The series can be described thus: Pilot study of multiple intravitreal methotrexate injections after PPV in eyes at high risk for PVR. It is filed as in vivo, human. On the set-up: IOP at last follow up / Final IOP: unit not given here. An excerpt:
We hypothesized that the administration of multiple, intravitreal methotrexate injections into eyes with high-risk features for post-operative proliferative vitreoretinopathy (PVR) development will have improved visual outcomes, higher anatomic final reattachment rates, decreased reoperation rates, and decreased occurrence of PVR at 4 months postoperatively.
We have performed a small pilot study in 10 patients with retinal detachment whom had high-risk clinical factors for developing PVR.
Patients 18 years to 89 years old of both genders were eligible for this study if they required pars plana vitrectomy (PPV) for rhegmatagenous retinal detachment secondary to trauma, PPV for preexisting proliferative vitreoretinopathy grade C or higher, or if they had retinal detachments requiring PPV for other indications associated with high risk condition for PVR development, i.e.: giant retinal tears (Giant retinal tears are defined as tears involving 90° or more of the circumference of the globe), retinal breaks larger than 3 disc areas, long-standing retinal detachments, detachments associated with hemorrhage.
The PPV was performed under local or general anesthesia using three, 23 or 20 gauge sclerotomy ports. Any present epiretinal membranes were dissected using a membrane pick and/or forceps. Intraoperative tissue staining, perfluorocarbons, cryopexy, endolaser, scleral buckling, and lensectomy were performed as needed. Either silicone oil or gas was used as the tamponading agent.
Routine post-operative visits, which involve a dilated funduscopic examination, occurred on post-operative day 1, 7, month 1, month 2, and month 3.
In addition to receiving the above-described standard of care, patients received multiple intravitreal methotrexate injections during their post-operative period. The first injection was administered intraoperatively and subsequently was injected on post-op week 1,2,3,4,5,6,7,8 and on post-op month 3, for a total of 10 injections. Intravitreal methotrexate injections were performed aseptically after the topical application of anaesthesia and 5% povidone iodine to the conjunctival sac. Each patient received an intravitreal injection of 400 mcg/0.1 ml methotrexate, 3.0 to 3.5 mm posterior to the limbus, depending on lens status, with a 30-gauge needle.
After injection, patients were monitored for adverse events, including a full-dilated funduscopic examination.

For series [3], the system named is patients, eyes with a wide variety of conditions including PVR. Conditions: intravitreal, varying doses, cited from earlier work.
[4] abbreviates: one patient (studyid), follow up 4 to 39 months.
Where [5] appears, read: one patient (studyid), intravitreal methotrexate 400 mcg/0.1 ml.

On to `CN(Cc1cnc2nc(N)nc(N)c2n1)c1ccc(C(=O)N[C@@H](CCC(=O)O)C(=O)O)cc1` [methotrexate, N-[4-[[(2,4-diamino-6-pteridinyl)methyl]methylamino]benzoyl]-L-glutamic acid], for which, in series [1] (100 μM, 200 μM, or 400 μM), the “Proliferation of human PVR cells in culture” value is “inhibited proliferation”. Also, the “Growth of PVR cells versus control” value in series [1] (1 week) was “growth inhibition and lack of confluency”. Moreover, in series [1] (2 weeks), the “Growth of PVR cells versus control” value was “inhibited growth and lack of confluency; also recorded: inhibition of cellular confluency continued”. For the same compound, in series [2] (10 patients), the “Other subjects with reaccumulation of fluid under the retina requiring re-operation, no membranes” value is “Two”. In series [2] (10 patients, three-month treatment protocol), the “Development of PVR while receiving methotrexate” value is given as “no subjects developed PVR”. The “Subjects with a degree of conjunctival hyperemia” value in series [2] (10 patients, consistent with the use of silicone oil) is reported as “All subjects”. In addition, the “Median post-operative visual acuity” value in series [2] (10 patients, median pre-operative visual acuity Hand Motions at 2 feet) is on record as 20/200. Also, in series [2] (all patients), the “Visual acuity and intraocular pressure at last follow up visit compared with post-operative month 4” value was “similar”. The Significant adverse events entry in series [2] (follow up 4 to 39 months, median 25 months) was “no significant adverse events were observed”. For the same compound, in series [2] (one patient (studyid)), the “Adverse events observed: Conjunctival hyperemia” value is 4 (2×) and 7 (3×) and 5 (3×) and 6 (2×); the “Adverse events observed: Elevated intraocular pressure” value is 0 (9×) and 1; the “Adverse events observed: NLP” value was 0 (9×) and 1; the “Adverse events observed: Superficial Punctate Keratopathy” value is 0 (9×) and 1. Besides, in series [2] (one patient (studyid)), the Reoperations required is 1 (2×) and 0 (8×). In series [2] (setting [4]), the “IOP at last follow up” value is 16 (2×) and 9 (3×) and 22 and 14 (2×) and 12 and 15; the “Visual acuity at last follow up” value is 20/300 and 20/200 and NLP and 20/70 and 20/150 and 20/500. Moreover, in series [2] (setting [5]), the “Detachments: Number of detachments due to PVR during study period” value is 0 (9×) and 0*; the “Final IOP” value was 12 (3×) and 9 (2×) and 10 and 8 and 15 and 13 (2×). The “Visual Acuity, Post-op month 4” value in series [2] (one patient (studyid), intravitreal methotrexate 400 mcg/0.1 ml, up to 10 injections over 3 months) was 20/200 (4×) and 20/160 and 20/252 and NLP and 20/65 and 20/320. The “Elevated intraocular pressure by Goldmann Tonometry” value in series [2] (one patient, single examination, attributed to excessive steroid use) is reported as 44 mm Hg. The “Patients with superficial punctuate keratopathy (SPK)” value in series [2] (single clinical exam, normal corneal surface one week later) is recorded as “one”. Besides, the “PVR after completion of the injection protocol” value in series [2] (trauma patient #4, at 3½ months postoperatively) is listed as “massive PVR two weeks after completion of the injection protocol”. In series [3] (5 patients), the “Change in visual acuity for the group” value is listed as “no change in visual acuity”. In addition, the “Number of patients with any improved vision” value in series [3] (of 5 patients) is given as “one”.
